In BigSolDB 2.1:

CSc1cccc(Nc2ccccc2)c1
Details	solubility (mole fraction)
in 1,2-dichloroethane, 287.65 K	0.189
in 1,2-dichloroethane, 292.3 K	0.231
in 1,2-dichloroethane, 296.85 K	0.278
in 1,2-dichloroethane, 300.95 K	0.311
in 1,2-dichloroethane, 305.35 K	0.36
in 1,2-dichloroethane, 310.45 K	0.415
in 1,2-dichloroethane, 315.15 K	0.466
in 1,2-dichloroethane, 319.75 K	0.515
in 1,2-dichloroethane, 324.25 K	0.562
in 1,2-dichloroethane, 329.55 K	0.615
in 1,2-dichloroethane, 333.75 K	0.654
in acetone, 287.45 K	0.254
in acetone, 292.55 K	0.306
in acetone, 296.15 K	0.343
in acetone, 300.35 K	0.381
in acetone, 305.45 K	0.438
in acetone, 310.65 K	0.5
in acetone, 315.15 K	0.551
in acetone, 321.75 K	0.643
in chloroform, 288.85 K	0.226
in chloroform, 293.35 K	0.263
in chloroform, 297.05 K	0.296
in chloroform, 302 K	0.338
in chloroform, 307.55 K	0.391
in chloroform, 313.25 K	0.449
in chloroform, 318.75 K	0.511
in chloroform, 323.13 K	0.557
in ethyl acetate, 287.85 K	0.231
in ethyl acetate, 292.95 K	0.281
in ethyl acetate, 297.25 K	0.311
in ethyl acetate, 302.15 K	0.357
in ethyl acetate, 306.65 K	0.403
in ethyl acetate, 311.25 K	0.452
in ethyl acetate, 316.45 K	0.516
in ethyl acetate, 321.35 K	0.573
in ethyl acetate, 325.85 K	0.643
in ethyl acetate, 330.15 K	0.711
in methanol, 287.65 K	0.0115
in methanol, 291.55 K	0.016
in methanol, 297.15 K	0.0235
in methanol, 302.4 K	0.0342
in methanol, 307.25 K	0.046
in methanol, 311.95 K	0.0608
in methanol, 316.35 K	0.0761
in methanol, 321.25 K	0.0951
in methanol, 327.15 K	0.121

COc1cccc(Nc2ccccc2)c1
Details	solubility (mole fraction)
in 1,2-dichloroethane, 287.65 K	0.149
in 1,2-dichloroethane, 292.3 K	0.182
in 1,2-dichloroethane, 297.35 K	0.216
in 1,2-dichloroethane, 302.55 K	0.258
in 1,2-dichloroethane, 308.65 K	0.312
in 1,2-dichloroethane, 313.15 K	0.355
in 1,2-dichloroethane, 318.85 K	0.401
in 1,2-dichloroethane, 324.25 K	0.443
in 1,2-dichloroethane, 329.55 K	0.502
in 1,2-dichloroethane, 333.75 K	0.545
in acetone, 287.25 K	0.237
in acetone, 292.85 K	0.264
in acetone, 298.95 K	0.3
in acetone, 303.05 K	0.327
in acetone, 308.15 K	0.361
in acetone, 313.05 K	0.407
in acetone, 317.55 K	0.456
in acetone, 321.75 K	0.513
in chloroform, 290.25 K	0.181
in chloroform, 295.25 K	0.218
in chloroform, 300.55 K	0.258
in chloroform, 306.15 K	0.308
in chloroform, 311.5 K	0.35
in chloroform, 315.5 K	0.386
in chloroform, 319.8 K	0.424
in chloroform, 323.13 K	0.456
in ethyl acetate, 287.15 K	0.195
in ethyl acetate, 291.05 K	0.225
in ethyl acetate, 295.55 K	0.254
in ethyl acetate, 300.18 K	0.283
in ethyl acetate, 306.35 K	0.329
in ethyl acetate, 311.25 K	0.366
in ethyl acetate, 316.25 K	0.407
in ethyl acetate, 321.35 K	0.442
in ethyl acetate, 326.25 K	0.5
in ethyl acetate, 330.15 K	0.543
in methanol, 287.25 K	0.0134
in methanol, 291.95 K	0.0174
in methanol, 296.65 K	0.0214
in methanol, 301.15 K	0.0268
in methanol, 305.35 K	0.0339
in methanol, 311.85 K	0.0478
in methanol, 316.25 K	0.0579
in methanol, 321.25 K	0.0724
in methanol, 327.15 K	0.0972
